# Literature values as cited in patent US7981649B2 (priority 2001, dated 2011).
# Test system: human hepatocyte and neuroblastoma cells
row,Compound,effect on cell metabolism
1,CCOP(=O)(OCC)Oc1ccc([N+](=O)[O-])cc1 [paraoxon],opposite effects on hepatocyte and neuroblastoma cell metabolism
2,CCOP(=S)(OCC)Oc1ccc([N+](=O)[O-])cc1 [parathion],opposite effects on hepatocyte and neuroblastoma cell metabolism
